Source: publication PMC9917360, “Novel 1,4-Dihydropyridine Derivatives as Mineralocorticoid Receptor Antagonists” (International Journal of Molecular Sciences, 2023)

Experiments:
[1] = molecular target: T1, human MR (hMR) (Homo sapiens, UniProt P08235); experiment: [3H]-aldosterone displacement from human MR, ligand-receptor binding assay in transfected COS-7 cells; conditions: 1 nM [3H]-aldosterone, increasing concentrations of unlabeled ligand, one-site model
T1 construct: expressed in transfected cells; host or cells: COS-7
T1 sequence (P08235 1-984): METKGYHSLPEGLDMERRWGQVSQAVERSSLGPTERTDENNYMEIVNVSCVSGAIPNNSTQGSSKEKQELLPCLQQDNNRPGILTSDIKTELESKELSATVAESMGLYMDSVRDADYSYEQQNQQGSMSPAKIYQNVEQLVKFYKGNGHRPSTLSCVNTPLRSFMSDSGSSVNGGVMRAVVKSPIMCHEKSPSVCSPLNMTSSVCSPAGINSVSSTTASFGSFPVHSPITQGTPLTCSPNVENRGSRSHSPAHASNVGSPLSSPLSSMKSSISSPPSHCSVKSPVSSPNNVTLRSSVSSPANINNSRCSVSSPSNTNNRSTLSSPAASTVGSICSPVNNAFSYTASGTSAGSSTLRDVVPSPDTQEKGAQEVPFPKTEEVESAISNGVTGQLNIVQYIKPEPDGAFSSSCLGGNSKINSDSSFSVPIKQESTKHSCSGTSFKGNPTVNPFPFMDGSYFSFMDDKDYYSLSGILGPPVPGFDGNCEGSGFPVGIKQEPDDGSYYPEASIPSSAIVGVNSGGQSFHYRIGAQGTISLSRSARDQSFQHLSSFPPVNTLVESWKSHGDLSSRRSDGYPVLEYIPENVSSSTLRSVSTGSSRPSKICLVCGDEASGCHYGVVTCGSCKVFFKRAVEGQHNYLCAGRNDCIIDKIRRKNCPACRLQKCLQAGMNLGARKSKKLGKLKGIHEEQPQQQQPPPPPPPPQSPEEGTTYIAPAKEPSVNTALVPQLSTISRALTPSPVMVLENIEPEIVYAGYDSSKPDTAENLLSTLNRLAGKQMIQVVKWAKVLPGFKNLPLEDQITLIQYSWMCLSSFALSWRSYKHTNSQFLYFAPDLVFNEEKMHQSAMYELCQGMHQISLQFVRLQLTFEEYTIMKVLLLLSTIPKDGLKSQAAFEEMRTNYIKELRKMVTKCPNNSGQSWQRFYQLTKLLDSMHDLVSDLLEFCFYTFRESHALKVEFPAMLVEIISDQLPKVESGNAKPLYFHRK
Description: Ligand-receptor binding assays were performed as described before. Briefly, COS-7 cells were seeded on 24-well plates and transfected with plasmid pcDNA3-hMR. Twenty-four hours after transfection, cells were washed once with serum-free DMEM and incubated for 2 h in 500 μL of the same medium containing the indicated concentration of each compound. After this initial period, cells were further incubated with the indicated compounds and 1 × 10^−9 M [^3H]-aldosterone (PerkinElmer Life Sciences, Waltham, MA, USA) for one additional hour. Cells were then washed twice with phosphate-buffered saline (PBS: 137 mM NaCl, 2,7 mM KCl, 10 mM Na2HPO4, 1.8 mM KH2PO4, pH 7.4) and then extracted with 200 μL of an ethanol:water mix (4:1, v:v). Disintegrations were recorded using liquid scintillation in a β counter. Control conditions included non-transfected cells, transfected cells treated with unlabeled aldosterone or transfected cells, treated with 1 nM [^3H]-aldosterone in the presence of 1 × 10^−5 M unlabeled aldosterone. Specific binding was determined by subtracting the number of disintegrations per minute (dpm) in the presence of 1 × 10^−5 M unlabeled aldosterone from the condition with 1 nM [^3H]-aldosterone. Each condition was performed in triplicate. Competition of each compound for 1 nM [^3H]-aldosterone binding was calculated as the percentage of the maximum binding obtained in the absence of compound.

[2] = molecular target: T1, human MR (hMR); experiment: MR gene reporter transactivation assay in transiently transfected COS-7 cells; format: cell-based; conditions: 1,4-DHP derivative 5 μM, 10 nM aldosterone stimulation
Description: Receptor transcriptional activity was assessed using a transactivation gene reporter assay, as described. Briefly, COS-7 cells were seeded on 96-well plates in DMEM supplemented with 10% charcoal-stripped FBS (Biowest, Nuaillé, France). Twenty-four hours after seeding, cells were transfected with pcDNA3-hMR, pcDNA3-hGR, or pCMV-FLAG-hAR in combination with pSG5-luc and pSG5-ren in a 5:4:1 proportion, respectively. […] After 2 h of incubation, cells were further treated with agonists (1 × 10^−8 M aldosterone; 1 × 10^−8 M testosterone or 0.5 × 10^−6 M cortisol) in the presence of each compound for 16 h. […] MR maximum and minimum activity were obtained in each assay using conditions with 1 × 10^−9 M aldosterone or vehicle (ethanol). Each condition was performed in three parallel wells. After treatments, firefly and Renilla luciferase activities were measured sequentially in the cell lysates using a commercially available kit (Dual-Glo; Promega, Madison, WI, USA). Receptor transcriptional activity was calculated as the ratio luc/ren. The activities in each condition were normalized to the activity obtained with vehicle or with agonist as indicated in each figure panel and are expressed a as percentage of the maximum value ± SD.

[3] = molecular target: T2, human AR (Homo sapiens, UniProt P10275); experiment: AR reporter gene transactivation assay in COS-7 cells; format: cell-based; conditions: 5 μM derivative, stimulation by 10 nM testosterone
T2 construct: Plasmid pCMV-FLAG-hAR, expressing full-length human AR; host or cells: COS-7
T2 sequence (P10275 1-920): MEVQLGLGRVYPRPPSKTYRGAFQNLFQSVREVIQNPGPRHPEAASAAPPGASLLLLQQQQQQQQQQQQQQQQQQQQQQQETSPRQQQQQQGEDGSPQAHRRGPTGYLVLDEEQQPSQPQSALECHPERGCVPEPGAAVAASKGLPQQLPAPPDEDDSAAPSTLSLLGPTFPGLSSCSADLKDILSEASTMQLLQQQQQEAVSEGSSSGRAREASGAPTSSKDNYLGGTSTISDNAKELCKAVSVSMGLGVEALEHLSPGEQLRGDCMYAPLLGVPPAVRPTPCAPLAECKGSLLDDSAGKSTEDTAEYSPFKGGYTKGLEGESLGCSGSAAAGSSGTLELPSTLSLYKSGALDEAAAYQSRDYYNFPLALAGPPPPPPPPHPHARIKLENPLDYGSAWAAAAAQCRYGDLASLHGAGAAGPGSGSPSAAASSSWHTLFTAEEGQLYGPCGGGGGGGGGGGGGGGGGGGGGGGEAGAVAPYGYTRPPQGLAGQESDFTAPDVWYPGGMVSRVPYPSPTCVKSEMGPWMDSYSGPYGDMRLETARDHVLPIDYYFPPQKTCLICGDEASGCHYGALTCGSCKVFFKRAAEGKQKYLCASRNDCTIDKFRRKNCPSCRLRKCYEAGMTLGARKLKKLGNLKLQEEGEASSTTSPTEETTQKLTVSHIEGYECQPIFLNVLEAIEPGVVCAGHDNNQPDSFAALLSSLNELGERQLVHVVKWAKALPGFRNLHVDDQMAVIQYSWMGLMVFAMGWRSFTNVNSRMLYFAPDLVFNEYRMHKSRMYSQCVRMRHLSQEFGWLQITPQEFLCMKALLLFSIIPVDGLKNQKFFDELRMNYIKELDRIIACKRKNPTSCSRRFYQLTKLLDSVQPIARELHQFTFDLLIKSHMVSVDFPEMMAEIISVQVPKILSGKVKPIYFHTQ
Description: Receptor transcriptional activity was assessed using a transactivation gene reporter assay, as described. Briefly, COS-7 cells were seeded on 96-well plates in DMEM supplemented with 10% charcoal-stripped FBS (Biowest, Nuaillé, France). Twenty-four hours after seeding, cells were transfected with pcDNA3-hMR, pcDNA3-hGR, or pCMV-FLAG-hAR in combination with pSG5-luc and pSG5-ren in a 5:4:1 proportion, respectively. […] After 2 h of incubation, cells were further treated with agonists (1 × 10^−8 M aldosterone; 1 × 10^−8 M testosterone or 0.5 × 10^−6 M cortisol) in the presence of each compound for 16 h. Assays using hMR included a control condition with 0.25 × 10^−6 M eplerenone. MR maximum and minimum activity were obtained in each assay using conditions with 1 × 10^−9 M aldosterone or vehicle (ethanol). Each condition was performed in three parallel wells. After treatments, firefly and Renilla luciferase activities were measured sequentially in the cell lysates using a commercially available kit (Dual-Glo; Promega, Madison, WI, USA). Receptor transcriptional activity was calculated as the ratio luc/ren. The activities in each condition were normalized to the activity obtained with vehicle or with agonist as indicated in each figure panel and are expressed a as percentage of the maximum value ± SD.

COC(=O)C1=C(CNC(=O)OCc2ccccc2)NC(C)=C(C#N)C1c1ccc(C#N)cc1OC (stereo not drawn) [Compound 16, Methyl 2-[(benzyloxycarbonyl)amino]methyl-5-cyano-4-(4-cyano-2-methoxy)phenyl-6-methyl-1,4-dihydropyridine-3-carboxylate]
Ki [1]: 262 nM | MR activity, % of the maximal activity [2]: 57% | decrease of AR activation [3]: 15%
